This note sets out measurements from ChEMBL document CHEMBL3098085, “Novel 2-chloro-4-anilino-quinazoline derivatives as EGFR and VEGFR-2 dual inhibitors” (Eur J Med Chem, 2014).

SMILES strings stand for the structures.

The target in test [1] is Vascular endothelial growth factor receptor 2 (Homo sapiens, UniProt P35968). Nature of the test: Inhibition of VEGFR2 (unknown origin) assessed as inhibition of 33[Pi] incorporation after 60 mins by scintillation counting.
The target in test [2] is Epidermal growth factor receptor (Homo sapiens, UniProt P00533). Kind of test: Inhibition of wild type EGFR (unknown origin) assessed as inhibition of 33[Pi] incorporation after 60 mins by scintillation counting.
Chain of Epidermal growth factor receptor (P00533 whole entry): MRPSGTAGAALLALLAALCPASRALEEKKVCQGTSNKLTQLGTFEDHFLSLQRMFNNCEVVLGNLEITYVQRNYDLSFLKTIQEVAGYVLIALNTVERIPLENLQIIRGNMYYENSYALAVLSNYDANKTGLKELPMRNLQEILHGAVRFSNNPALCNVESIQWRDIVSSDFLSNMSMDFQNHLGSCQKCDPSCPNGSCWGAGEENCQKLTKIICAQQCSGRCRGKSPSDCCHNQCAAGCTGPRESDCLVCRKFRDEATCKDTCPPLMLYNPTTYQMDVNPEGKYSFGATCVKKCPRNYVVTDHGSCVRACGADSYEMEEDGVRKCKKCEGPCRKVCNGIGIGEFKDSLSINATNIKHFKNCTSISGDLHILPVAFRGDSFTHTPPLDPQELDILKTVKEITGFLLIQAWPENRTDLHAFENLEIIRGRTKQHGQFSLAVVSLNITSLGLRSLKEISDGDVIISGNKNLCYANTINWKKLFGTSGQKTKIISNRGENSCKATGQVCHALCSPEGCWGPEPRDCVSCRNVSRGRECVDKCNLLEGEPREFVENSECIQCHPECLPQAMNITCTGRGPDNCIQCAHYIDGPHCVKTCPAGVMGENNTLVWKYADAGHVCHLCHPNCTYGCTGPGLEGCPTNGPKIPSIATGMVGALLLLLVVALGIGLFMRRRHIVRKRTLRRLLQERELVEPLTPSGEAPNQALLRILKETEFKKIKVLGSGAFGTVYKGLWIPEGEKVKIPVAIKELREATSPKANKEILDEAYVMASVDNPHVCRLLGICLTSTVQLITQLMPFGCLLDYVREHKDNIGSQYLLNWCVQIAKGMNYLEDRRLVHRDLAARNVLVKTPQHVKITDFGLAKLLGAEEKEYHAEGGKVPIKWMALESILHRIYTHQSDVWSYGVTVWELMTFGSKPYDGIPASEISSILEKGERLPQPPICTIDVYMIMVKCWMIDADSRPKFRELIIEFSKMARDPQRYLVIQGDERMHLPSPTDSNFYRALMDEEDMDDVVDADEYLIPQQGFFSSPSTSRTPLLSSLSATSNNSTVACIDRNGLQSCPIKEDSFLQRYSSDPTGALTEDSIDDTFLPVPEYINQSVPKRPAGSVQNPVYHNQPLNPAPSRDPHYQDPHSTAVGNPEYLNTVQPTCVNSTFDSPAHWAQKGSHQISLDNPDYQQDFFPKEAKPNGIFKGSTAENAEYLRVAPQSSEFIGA

Chain of Vascular endothelial growth factor receptor 2 (P35968 whole entry): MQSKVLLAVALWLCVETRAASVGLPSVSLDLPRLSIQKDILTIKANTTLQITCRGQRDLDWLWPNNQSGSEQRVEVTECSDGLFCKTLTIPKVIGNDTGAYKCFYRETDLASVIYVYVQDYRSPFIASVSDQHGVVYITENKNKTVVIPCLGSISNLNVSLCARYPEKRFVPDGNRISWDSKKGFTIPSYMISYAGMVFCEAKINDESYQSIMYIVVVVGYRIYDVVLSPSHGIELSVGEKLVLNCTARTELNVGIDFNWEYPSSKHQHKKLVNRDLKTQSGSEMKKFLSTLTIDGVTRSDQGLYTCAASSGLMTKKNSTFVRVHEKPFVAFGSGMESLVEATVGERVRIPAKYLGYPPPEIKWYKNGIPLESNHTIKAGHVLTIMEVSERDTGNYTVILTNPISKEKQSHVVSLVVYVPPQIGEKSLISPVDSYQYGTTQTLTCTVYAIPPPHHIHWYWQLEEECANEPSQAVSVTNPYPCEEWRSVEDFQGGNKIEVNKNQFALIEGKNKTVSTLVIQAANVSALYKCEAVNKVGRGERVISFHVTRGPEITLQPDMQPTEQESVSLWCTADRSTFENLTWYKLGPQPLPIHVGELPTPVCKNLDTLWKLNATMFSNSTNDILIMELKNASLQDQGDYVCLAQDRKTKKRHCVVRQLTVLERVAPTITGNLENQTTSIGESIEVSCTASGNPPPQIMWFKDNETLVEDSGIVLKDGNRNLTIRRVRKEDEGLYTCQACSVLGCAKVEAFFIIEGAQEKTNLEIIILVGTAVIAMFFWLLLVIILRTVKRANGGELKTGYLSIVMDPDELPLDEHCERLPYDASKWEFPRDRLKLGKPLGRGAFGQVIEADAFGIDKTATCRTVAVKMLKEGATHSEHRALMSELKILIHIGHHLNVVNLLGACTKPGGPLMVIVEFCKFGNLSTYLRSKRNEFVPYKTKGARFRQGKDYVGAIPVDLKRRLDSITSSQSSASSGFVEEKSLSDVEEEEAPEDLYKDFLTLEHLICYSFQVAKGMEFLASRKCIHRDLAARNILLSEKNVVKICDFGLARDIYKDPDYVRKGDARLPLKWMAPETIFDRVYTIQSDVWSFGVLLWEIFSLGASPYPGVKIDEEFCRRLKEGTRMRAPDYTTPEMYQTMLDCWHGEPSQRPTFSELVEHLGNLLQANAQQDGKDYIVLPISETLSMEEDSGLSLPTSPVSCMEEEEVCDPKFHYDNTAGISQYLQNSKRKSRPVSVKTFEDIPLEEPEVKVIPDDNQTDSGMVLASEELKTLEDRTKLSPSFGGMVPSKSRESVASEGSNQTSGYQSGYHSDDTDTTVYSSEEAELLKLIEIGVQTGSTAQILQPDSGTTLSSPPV

One may read the IC50 as the midpoint of a concentration-inhibition curve. Consider `O=S(=O)(Nc1nccs1)c1ccc(Nc2nc(Cl)nc3cc4c(cc23)OCO4)cc1`, for which the IC50 in test [1] and in test [2] was over 100 µM throughout.
Regarding `COc1cc2nc(Cl)nc(Nc3ccc(S(=O)(=O)N(C)C)cc3)c2cc1OC`, the half-maximal inhibitory concentration (IC50) was found to be 43.3 µM in test [1] and 67.2 µM in test [2].
On to `CN(C)S(=O)(=O)c1ccc(Nc2nc(Cl)nc3cc4c(cc23)OCO4)cc1`, for which the IC50 was 23.4 µM in test [1] and 18.3 µM in test [2].
For the compound `CN(C)S(=O)(=O)c1ccc(Nc2nc(Cl)nc3ccccc23)cc1`, the IC50 in test [1] and in test [2] was over 100 µM in each case.
For the compound `COc1cc2nc(Cl)nc(Nc3ccc(S(C)(=O)=O)cc3)c2cc1OC`, the IC50 in test [1] was over 100 µM; in test [2], 61.5 µM.
Regarding `CS(=O)(=O)c1ccc(Nc2nc(Cl)nc3cc4c(cc23)OCO4)cc1`, the IC50 in test [1] and in test [2] was over 100 µM each time.
As to `COc1cc2nc(Cl)nc(Nc3ccc(S(N)(=O)=O)cc3)c2cc1OC`, the IC50 was determined as 1.02 µM in test [1] and 2.37 µM in test [2].
For `NS(=O)(=O)c1ccc(Nc2nc(Cl)nc3cc4c(cc23)OCO4)cc1` the same measures were 26.9 µM and 34.6 µM.
For `COc1cc2nc(Cl)nc(Nc3ccc(N(C)C)cc3)c2cc1OC` the same measures were 39.3 µM and 36 µM.
Take `CN(C)c1ccc(Nc2nc(Cl)nc3cc4c(cc23)OCO4)cc1`: the IC50 in test [1] and in test [2] was over 100 µM throughout.
Turning to `CNS(=O)(=O)c1ccc(Nc2nc(Cl)nc3cc(OC)c(OC)cc23)cc1`, the figures for the IC50 in test [1] and in test [2] were 0.85 µM and 1.63 µM, respectively.
For `COc1cc2nc(Cl)nc(Nc3ccc(O)cc3)c2cc1OC` the same measures were 2.1 µM and 4.3 µM.
Regarding `COc1cc2nc(Cl)nc(Nc3ccc(S(=O)(=O)O)cc3)c2cc1OC`, the IC50 in test [1] and in test [2] was over 100 µM in each case.
`COc1cc2nc(Cl)nc(Nc3ccc(C(=O)O)cc3)c2cc1OC`: the IC50 in test [1] and in test [2] was over 100 µM each time.
In the case of `COc1cc2nc(Cl)nc(Nc3ccc(C(N)=O)cc3)c2cc1OC`, the results for the IC50 in test [1] and in test [2] were 1.17 µM and 0.9 µM, respectively.
For `COc1cc2nc(Cl)nc(Nc3ccc(NC(C)=O)cc3)c2cc1OC` the same measures were 1.99 µM and 37.6 µM.
For `COc1cc2nc(Cl)nc(Nc3ccc(S(=O)(=O)Nc4nccs4)cc3)c2cc1OC` the same measures were 7.79 µM and 9.7 µM.
